This is an account of results in ChEMBL document CHEMBL5725873, “Heteroaryl compounds and their use as therapeutic drugs” (2018).

The experiment deals with T1, Tyrosine-protein kinase Mer (Homo sapiens, UniProt Q12866).
T1 sequence (Q12866 whole entry): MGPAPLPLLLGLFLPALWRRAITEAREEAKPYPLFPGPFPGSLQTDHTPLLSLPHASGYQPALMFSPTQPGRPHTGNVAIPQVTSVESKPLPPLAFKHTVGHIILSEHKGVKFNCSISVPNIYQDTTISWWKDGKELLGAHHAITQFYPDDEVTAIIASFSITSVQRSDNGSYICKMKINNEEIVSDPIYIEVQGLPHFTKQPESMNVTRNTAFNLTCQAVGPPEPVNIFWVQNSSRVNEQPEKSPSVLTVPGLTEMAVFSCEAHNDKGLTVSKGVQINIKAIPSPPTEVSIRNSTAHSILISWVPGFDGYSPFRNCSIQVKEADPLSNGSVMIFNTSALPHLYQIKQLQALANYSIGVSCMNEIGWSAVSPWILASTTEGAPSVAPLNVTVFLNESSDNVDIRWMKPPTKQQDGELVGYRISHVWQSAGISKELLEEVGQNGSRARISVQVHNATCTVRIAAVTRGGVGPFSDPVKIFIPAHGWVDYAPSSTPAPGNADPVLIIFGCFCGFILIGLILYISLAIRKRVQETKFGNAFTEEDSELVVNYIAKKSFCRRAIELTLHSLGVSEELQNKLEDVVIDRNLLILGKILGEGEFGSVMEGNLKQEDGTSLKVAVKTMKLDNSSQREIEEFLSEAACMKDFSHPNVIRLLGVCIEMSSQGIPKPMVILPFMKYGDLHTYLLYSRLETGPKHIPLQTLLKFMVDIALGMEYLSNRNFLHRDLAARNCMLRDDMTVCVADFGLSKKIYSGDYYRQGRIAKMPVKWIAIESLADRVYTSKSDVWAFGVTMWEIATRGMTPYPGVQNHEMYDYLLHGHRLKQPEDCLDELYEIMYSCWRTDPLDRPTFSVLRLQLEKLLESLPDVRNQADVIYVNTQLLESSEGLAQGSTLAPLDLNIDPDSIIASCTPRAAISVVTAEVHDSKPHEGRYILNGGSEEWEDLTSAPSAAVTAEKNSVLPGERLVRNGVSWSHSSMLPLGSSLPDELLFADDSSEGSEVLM
Put plainly: TBD: TBD.

A value given as a limit tells only on which side of the number the result lay.

`CN1CCN(Cc2ccc(-c3ccc(CO[C@H]4CCC[C@@H]4NC(=O)c4cc(-c5ccc(Cl)c(F)c5)cnc4N)cc3)cc2)CC1` showed an IC50 of less than 10 nM.

In the case of `C[C@@H](CNC(=O)c1cc(-c2cnn(C)c2)cnc1N)OCc1ccc(Cl)c(Cl)c1`, the 50% inhibitory concentration (IC50) was more than 1000 nM.

As usually defined, the IC50 is the concentration at which inhibition is half-maximal. Low values mean greater potency in that assay, high ones weaker potency in that assay.
